Experimental data from patent US20240148664A1, “LIPID AND COMPOSITION” (SOGO PHARMACEUTICAL CO., LTD., priority 2021, published 2024).

Tested on: mice
Experiment: In vivo animal experiment: protein expression level after intramuscular administration of mRNA lipid nanoparticles (IVIS luminescence)
Settings: intramuscular left hind leg, 1.25 μg mRNA/mouse, time point of the value not stated
Procedure: An experiment was carried out in mice in order to evaluate lipid nanoparticles encapsulating an mRNA. By injecting mice with a solution including lipid nanoparticles to transfect the mice and measuring the amount of a predetermined protein produced, the performance of the lipid nanoparticles used can be evaluated. Hereinafter, the procedure of the experiment will be shown.
By using lipids (Ib), (Ik), and (II) of Examples 2, 11, and 12, lipid nanoparticle-containing solutions for the in vivo animal experiment were prepared. […]
50 μL (1.25 μg/mouse, in terms of amount of mRNA) of the solution for administration was intramuscularly administered to the left hind leg of mice. […] 10 Minutes after administration of the luciferin solution, the amount of luminescence at a predetermined time after administration was measured under isoflurane anesthesia with an in vivo imaging system (manufactured by Xenogen, IVIS) to calculate the protein expression level.

Question: What does the source list for `CCCCCCCC/C=C\CCCCCCCCC(CCCCCCC/C=C\CCCCCCCC)OC(=O)C(CCC(=O)O)NC(=O)C(N)CCCNC(=N)N` (centres unmarked) [Example 2, 4-(2-amino-5-guanidinopentanamido)-5-(((9Z,27Z)-hexatriaconta-9,27-dien-18-yl)oxy)-5-oxopentanoic acid]?
Answer: Protein expression level (PEG-modified lipid (PEG2000-DMG 1.5 mol %) present): 130,000; Protein expression level (PEG-modified lipid absent): 13,000
